Measurements from PubChem BioAssay (NCI).
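Results reflect a 48-hour exposure of cells in 96-well plates to compound at five concentrations. Here, GI50 denotes the concentration required for 50% inhibition of growth. TGI: concentration producing complete growth inhibition.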

Legend:
Assay in all cases: inhibition of tumour cell growth, NCI panel, 48 h
UO-31 renal = tested on: UO-31 renal
SF-539 CNS = tested on: SF-539 CNS
NCI-H460 lung = tested on: NCI-H460 lung
OVCAR-3 ovarian = tested on: OVCAR-3 ovarian
SF-295 CNS = tested on: SF-295 CNS
NCI-H226 lung = tested on: NCI-H226 lung
COLO 205 colon = tested on: COLO 205 colon
OVCAR-5 ovarian = tested on: OVCAR-5 ovarian
UACC-62 melanoma = tested on: UACC-62 melanoma
MALME-3M melanoma = tested on: MALME-3M melanoma
786-0 renal = tested on: 786-0 renal
MDA-MB-435 = tested on: MDA-MB-435
SF-268 CNS = tested on: SF-268 CNS
HOP-92 NSCLC = tested on: HOP-92 NSCLC
KM12 colon = tested on: KM12 colon
MCF7 breast = tested on: MCF7 breast
TK-10 renal = tested on: TK-10 renal
ACHN renal = tested on: ACHN renal
SK-MEL-2 melanoma = tested on: SK-MEL-2 melanoma
HOP-62 NSCLC = tested on: HOP-62 NSCLC
SK-MEL-28 melanoma = tested on: SK-MEL-28 melanoma
SK-OV-3 ovarian = tested on: SK-OV-3 ovarian
EKVX NSCLC = tested on: EKVX NSCLC
HCC-2998 colon = tested on: HCC-2998 colon
BT-549 breast = tested on: BT-549 breast
OVCAR-4 ovarian = tested on: OVCAR-4 ovarian
A549 NSCLC = tested on: A549 NSCLC
SN12C renal = tested on: SN12C renal
A498 renal = tested on: A498 renal
MDA-MB-231 breast = tested on: MDA-MB-231 breast
NCI-H522 lung = tested on: NCI-H522 lung
PC-3 prostate = tested on: PC-3 prostate
MOLT-4 leukemia = tested on: MOLT-4 leukemia
OVCAR-8 ovarian = tested on: OVCAR-8 ovarian
SW-620 colon = tested on: SW-620 colon
CAKI-1 renal = tested on: CAKI-1 renal
CCRF-CEM leukemia = tested on: CCRF-CEM leukemia
U251 CNS = tested on: U251 CNS
LOX IMVI melanoma = tested on: LOX IMVI melanoma
T-47D breast = tested on: T-47D breast
IGROV1 ovarian = tested on: IGROV1 ovarian
HT29 colon = tested on: HT29 colon
SNB-75 CNS = tested on: SNB-75 CNS
NCI-H23 lung = tested on: NCI-H23 lung
RPMI-8226 leukemia = tested on: RPMI-8226 leukemia
M14 melanoma = tested on: M14 melanoma
SNB-19 CNS = tested on: SNB-19 CNS
UACC-257 melanoma = tested on: UACC-257 melanoma
HS 578T breast = tested on: HS 578T breast
HCT-116 colon = tested on: HCT-116 colon
SK-MEL-5 melanoma = tested on: SK-MEL-5 melanoma
HCT-15 colon = tested on: HCT-15 colon
DU-145 prostate = tested on: DU-145 prostate
HL-60(TB) leukemia = tested on: HL-60(TB) leukemia
SR leukemia = tested on: SR leukemia
NCI/ADR-RES ovarian = tested on: NCI/ADR-RES ovarian

With `N#Cc1nn(-c2cc(=O)[nH]c3ccc(Cl)cc23)c(N)c1C#N` the GI50 (UO-31 renal) was greater than 100 µM, the TGI (UO-31 renal) was greater than 100 µM and the GI50 (SF-539 CNS) was greater than 100 µM. The TGI (SF-539 CNS) was greater than 100 µM, the GI50 (NCI-H460 lung) was greater than 100 µM and the TGI (NCI-H460 lung) was greater than 100 µM. The GI50 (OVCAR-3 ovarian) was greater than 100 µM, the TGI (OVCAR-3 ovarian) was greater than 100 µM and the GI50 (SF-295 CNS) was greater than 100 µM. It also gave a TGI (SF-295 CNS) greater than 100 µM, a GI50 (NCI-H226 lung) greater than 100 µM and a TGI (NCI-H226 lung) greater than 100 µM. For the same compound, the GI50 (COLO 205 colon) was 59.3 µM, the TGI (COLO 205 colon) was greater than 100 µM and the GI50 (OVCAR-5 ovarian) was greater than 100 µM. It also gave a TGI (OVCAR-5 ovarian) greater than 100 µM, a GI50 (UACC-62 melanoma) greater than 100 µM and a TGI (UACC-62 melanoma) greater than 100 µM. The GI50 (MALME-3M melanoma) was greater than 100 µM, the TGI (MALME-3M melanoma) was greater than 100 µM and the GI50 (786-0 renal) was greater than 100 µM. It also gave a TGI (786-0 renal) greater than 100 µM, a GI50 (MDA-MB-435) greater than 100 µM and a TGI (MDA-MB-435) greater than 100 µM. It also gave a GI50 (SF-268 CNS) greater than 100 µM, a TGI (SF-268 CNS) greater than 100 µM and a GI50 (HOP-92 NSCLC) of 10.2 µM. The TGI (HOP-92 NSCLC) was greater than 100 µM, the GI50 (KM12 colon) was greater than 100 µM and the TGI (KM12 colon) was greater than 100 µM. The GI50 (MCF7 breast) was 82.3 µM, the TGI (MCF7 breast) was greater than 100 µM and the GI50 (TK-10 renal) was greater than 100 µM. The TGI (TK-10 renal) was greater than 100 µM, the GI50 (ACHN renal) was greater than 100 µM and the TGI (ACHN renal) was greater than 100 µM. The GI50 (SK-MEL-2 melanoma) was greater than 100 µM, the TGI (SK-MEL-2 melanoma) was greater than 100 µM and the GI50 (HOP-62 NSCLC) was greater than 100 µM. The TGI (HOP-62 NSCLC) was greater than 100 µM, the GI50 (SK-MEL-28 melanoma) was greater than 100 µM and the TGI (SK-MEL-28 melanoma) was greater than 100 µM. The GI50 (SK-OV-3 ovarian) was greater than 100 µM, the TGI (SK-OV-3 ovarian) was greater than 100 µM and the GI50 (EKVX NSCLC) was 11.5 µM. It also gave a TGI (EKVX NSCLC) greater than 100 µM, a GI50 (HCC-2998 colon) greater than 100 µM and a TGI (HCC-2998 colon) greater than 100 µM. For the same compound, the GI50 (BT-549 breast) was greater than 100 µM, the TGI (BT-549 breast) was greater than 100 µM and the GI50 (OVCAR-4 ovarian) was 8.63 µM. It also gave a TGI (OVCAR-4 ovarian) greater than 100 µM, a GI50 (A549 NSCLC) greater than 100 µM and a TGI (A549 NSCLC) greater than 100 µM. For the same compound, the GI50 (SN12C renal) was greater than 100 µM, the TGI (SN12C renal) was greater than 100 µM and the GI50 (A498 renal) was greater than 100 µM. The TGI (A498 renal) was greater than 100 µM, the GI50 (MDA-MB-231 breast) was 89.8 µM and the TGI (MDA-MB-231 breast) was greater than 100 µM. It also gave a GI50 (NCI-H522 lung) greater than 100 µM, a TGI (NCI-H522 lung) greater than 100 µM and a GI50 (PC-3 prostate) greater than 100 µM. For the same compound, the TGI (PC-3 prostate) was greater than 100 µM, the GI50 (MOLT-4 leukemia) was greater than 100 µM and the TGI (MOLT-4 leukemia) was greater than 100 µM. The GI50 (OVCAR-8 ovarian) was greater than 100 µM, the TGI (OVCAR-8 ovarian) was greater than 100 µM and the GI50 (SW-620 colon) was greater than 100 µM. It also gave a TGI (SW-620 colon) greater than 100 µM, a GI50 (CAKI-1 renal) greater than 100 µM and a TGI (CAKI-1 renal) greater than 100 µM. For the same compound, the GI50 (CCRF-CEM leukemia) was greater than 100 µM, the TGI (CCRF-CEM leukemia) was greater than 100 µM and the GI50 (U251 CNS) was greater than 100 µM. For the same compound, the TGI (U251 CNS) was greater than 100 µM, the GI50 (LOX IMVI melanoma) was greater than 100 µM and the TGI (LOX IMVI melanoma) was greater than 100 µM. For the same compound, the GI50 (T-47D breast) was 38.9 µM, the TGI (T-47D breast) was greater than 100 µM and the GI50 (IGROV1 ovarian) was greater than 100 µM. The TGI (IGROV1 ovarian) was greater than 100 µM, the GI50 (HT29 colon) was greater than 100 µM and the TGI (HT29 colon) was greater than 100 µM. For the same compound, the GI50 (SNB-75 CNS) was greater than 100 µM, the TGI (SNB-75 CNS) was greater than 100 µM and the GI50 (NCI-H23 lung) was greater than 100 µM. The TGI (NCI-H23 lung) was greater than 100 µM, the GI50 (RPMI-8226 leukemia) was greater than 100 µM and the TGI (RPMI-8226 leukemia) was greater than 100 µM. The GI50 (M14 melanoma) was greater than 100 µM, the TGI (M14 melanoma) was greater than 100 µM and the GI50 (SNB-19 CNS) was greater than 100 µM. It also gave a TGI (SNB-19 CNS) greater than 100 µM, a GI50 (UACC-257 melanoma) greater than 100 µM and a TGI (UACC-257 melanoma) greater than 100 µM. It also gave a GI50 (HS 578T breast) greater than 100 µM, a TGI (HS 578T breast) greater than 100 µM and a GI50 (HCT-116 colon) greater than 100 µM. The TGI (HCT-116 colon) was greater than 100 µM, the GI50 (SK-MEL-5 melanoma) was greater than 100 µM and the TGI (SK-MEL-5 melanoma) was greater than 100 µM. The GI50 (HCT-15 colon) was greater than 100 µM, the TGI (HCT-15 colon) was greater than 100 µM and the GI50 (DU-145 prostate) was greater than 100 µM. It also gave a TGI (DU-145 prostate) greater than 100 µM, a GI50 (HL-60(TB) leukemia) greater than 100 µM and a TGI (HL-60(TB) leukemia) greater than 100 µM. It also gave a GI50 (SR leukemia) greater than 100 µM, a TGI (SR leukemia) greater than 100 µM and a GI50 (NCI/ADR-RES ovarian) greater than 100 µM. For the same compound, the TGI (NCI/ADR-RES ovarian) was greater than 100 µM.
